Target: T1, PfPRMT5 (Plasmodium falciparum, UniProt Q8ID96)
T1 construct: gene PF3D7_1361000; protein A part cut by TEV, protein C tag kept; associated parasite proteins may co-purify
T1 sequence (Q8ID96 1-724): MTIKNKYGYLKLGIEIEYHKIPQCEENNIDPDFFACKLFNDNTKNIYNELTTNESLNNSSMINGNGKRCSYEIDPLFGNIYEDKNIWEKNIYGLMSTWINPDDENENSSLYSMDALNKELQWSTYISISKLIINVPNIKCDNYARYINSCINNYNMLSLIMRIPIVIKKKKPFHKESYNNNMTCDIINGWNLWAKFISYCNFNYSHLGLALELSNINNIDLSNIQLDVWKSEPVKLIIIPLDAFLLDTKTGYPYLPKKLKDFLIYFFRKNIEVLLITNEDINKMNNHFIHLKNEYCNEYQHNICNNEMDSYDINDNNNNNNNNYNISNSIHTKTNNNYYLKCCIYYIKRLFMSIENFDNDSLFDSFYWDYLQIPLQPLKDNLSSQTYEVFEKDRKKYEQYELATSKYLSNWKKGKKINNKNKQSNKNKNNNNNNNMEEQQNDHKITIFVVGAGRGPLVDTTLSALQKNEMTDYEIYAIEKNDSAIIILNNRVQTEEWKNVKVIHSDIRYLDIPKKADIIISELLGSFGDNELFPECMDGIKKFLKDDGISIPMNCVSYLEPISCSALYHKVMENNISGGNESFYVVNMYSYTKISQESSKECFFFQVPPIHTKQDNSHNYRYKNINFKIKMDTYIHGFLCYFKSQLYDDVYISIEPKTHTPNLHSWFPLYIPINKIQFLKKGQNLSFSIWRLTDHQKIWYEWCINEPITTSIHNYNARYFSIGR
Test: MTase-Glo luminescence methyltransferase assay
Type: biochemical
Settings: 30 min pre-incubation at 37 °C, 115 µM PfPRMT5 as printed, 10 µM SAM, 0.1 µM human recombinant mononucleosomes, pH 8.0, 60 min

With `Nc1nc2cc(CC[C@H]3C[C@@H](n4ccc5c(N)ncnc54)[C@H](O)[C@@H]3O)ccc2cc1Br` [onametostat] the “% reduction of activity at 1:1 molar ratio PfPRMT5:onametostat” value was ~ 48%.
